The data set can be described thus: Solubility of biocide in water. It is filed as physicochemical. Conditions: in words.

Experimental findings from patent US20200303198A1, “POLISHING COMPOSITION AND POLISHING METHOD” (FUJIMI INCORPORATED, priority 2019, published 2020) are described below.

With `O=C(OCc1ccccc1)c1ccc(O)cc1` [benzyl paraoxybenzoate], the solubility in water result was “poor solubility in water”.
